Values quoted from earlier work, collected in patent US20190231742A1, “NUTRITIONAL AGENTS USED TO PREVENT AND TREAT HYPERSENSITIVITY AND OTHER ALLERGIC-TYPE DISORDERS” (priority 2017, published 2019).

Legend:
[1] = taken by mouth; FIG. 3
[2] = Alzheimer's disease patient; increasing quantities on successive days
[3] = oral administration of ~20 g; raised from ≤0.2 mM

Compound	rise in the blood level of D-βOHB and AcAc with increasing oral amount (mg/kg body weight) [1]	water solubility	time of peak blood D-βOHB level after ingestion [2]	plasma D-βOHB level [3] [mM]
CC(O)CCOC(=O)CC(C)O [KME, (R)-3-hydroybutyl (R)-3-hydroxybutyrate]	increases proportionately	somewhat water soluble	about 1 hour	–
CCCCCCCC(=O)OCC(COC(=O)CCCCCCC)OC(=O)CCCCCCC [tricaprylin]	–	–	–	0.5 to 0.7
